Three molecules from patent US20200205399A1, “COMPOSITION FOR CRYOPRESERVATION, METHOD FOR PRODUCING CRYOPRESERVED MATERIAL, CELL PREPARATION, METHOD FOR PRODUCING CELL PREPARATION, AND KIT FOR CRYOPRESERVATION” (TWO CELLS Co., Ltd., priority 2017, published 2020) can be followed below.

Entries after “also recorded” stand apart in the source; their conditions may differ.

The assay has as its system gMSC (registered trademark) 1. Description: Experimental cryopreservation of gMSC 1 (scaffold-free, three-dimensional mass of mesenchymal stem cells); cell count after thawing. The class given is cell-based, human. Particulars: conclusion from gMSC 1 experiments, constituent added to 10% DMSO + basal medium + albumin. Here is the method: Primary cultured human synovium-derived MSCs were obtained through the following steps (1) to (4) or were obtained by shredding a tissue into fragments, immersing them in a culture solution (STK1) in a culture vessel, and allowing outgrowth of cells from the tissue fragments.
(1) Synovial tissue was taken from a human.
(2) The obtained synovial tissue was washed with PBS, then the tissue was added to 10 ml of a 0.4% collagenase solution and blended, and allowed to react at 37° C. for 1 to 4 hours.
(3) The resultant product was subjected to filtering and then centrifugation to recover the synovial tissue.
(4) Primary culture was carried out in a STK (registered trademark) 1 in accordance with the instructions from the manufacturer of the STK 1.
The primary cultured cells obtained in the above manner were subcultured and proliferated in a STK (registered trademark) 2 by repeated subculture, in accordance with the instructions from the manufacturer of the STK 2.
MSCs in a sub-confluent state (5th generation: P5) were washed once with phosphate buffered saline (PBS, calcium-free and magnesium-free, PBS(−), Cell Science & Technology Institute, Inc.), then detached with use of a cell detachment agent TrypLE Select CTS (Thermo Fisher Scientific Inc.), were collected, and suspended in a washing medium (DMEM, Sigma). Then, the cells were transferred to a tube for centrifugation, and subjected to centrifugation at 1500 rpm at room temperature for 5 minutes. The separated single cells were further suspended in a washing medium, and the number of cells was counted using trypan blue staining. The cells were inoculated onto a 6-well plate (SUMITOMO BAKELITE CO., LTD.) containing a STK (registered trademark) 2 at a density of 40×10^4 cells/cm^2, and cultured (high-density culture) in an incubator at 37° C. and 5% CO2 for 7 days. Culture media were replaced three days after the inoculation and five days after the inoculation. […]

Tween 80 [reference compound]: the “cryopreservative effect on scaffold-free, three-dimensional mass of mesenchymal stem cells” value is recorded as “not effective”. With `CCCCC/C=C\C/C=C\CCCCCCCC(=O)O` [linoleic acid, Linoleic Acid] the entry was “effective; also recorded: greater than the cryopreservative effect achieved by methyl-β-cyclodextrin”; with Phosphatidic acid sodium salt [PA], “effective”.
